Source: ChEMBL document CHEMBL1133426, “2-Substituted paullones: CDK1/cyclin B-inhibiting property and in vitro antiproliferative activity” (Bioorg Med Chem Lett, 2000)

Experiments:
cells = assay type: functional; conditions: Homo sapiens
Description: Inhibition of proliferation in NCI panel of 60 human tumor cell lines

HCT-116 = assay: cells; assay type: functional; conditions: Homo sapiens
Description: Inhibition of HCT116 colon cancer cell proliferation

SMILES	GI50 (cells)	GI50 (HCT-116)
O=C1Cc2c([nH]c3ccc(C(F)(F)F)cc23)-c2cc(C#CC3(O)CCCCC3)ccc2N1	2 µM	2.51 µM
O=C1Cc2c([nH]c3ccc(C(F)(F)F)cc23)-c2cc(C#CCO)ccc2N1	12.6 µM	3.16 µM
O=C1Cc2c([nH]c3ccc(Br)cc23)-c2ccccc2N1 [KENPAULLONE]	39.8 µM	–
